Structures can show the parent of a compound that is named as a salt.
Target: T1, human cloned 5-HT6 receptors (Homo sapiens, UniProt P50406)
T1 construct: expressed in transfected cells; host or cells: HeLa cells expressing cloned 5-HT6 receptor (membranes)
Assay: Cyclase assay (cAMP production in membranes of HeLa 5HT6 cells, antagonism of 5-HT)
Type: biochemical
Settings: antagonist potency, 5-HT at 4×EC50, functional Ki by Cheng-Prusoff from IC50, read-out: fpKi (negative log10 of the molar functional Ki) (converted)
Procedure: Compounds of the invention may be tested for in vitro biological activity in accordance with the following cyclase assay:
0.5 μl of test compound in 100% dimethylsulfoxide (DMSO) was added to a white, solid 384 well assay plate (for dose response measurements the top of the concentration range is 7.5 μM final). […]
cAMP production was then measured using the DiscoveRx™ HitHunter™ chemiluminescence cAMP assay kit (DiscoveRx Corporation, 42501 Albrae Street, Fremont, Calif. 94538; Product Code: 90-0004L) or any other suitable cAMP measurement assay.
IC50 values were estimated from arbitrary designated unit (ADU) measurements from a Perkin Elmer Viewlux instrument using a four parameter logistic curve fit within EXCEL (Bowen, W. P. and Jerman, J. C. (1995), Nonlinear regression using spreadsheets. Trends in Pharmacol. Sci., 16, 413-417). Functional Ki values were calculated using the method of Cheng, Y. C. and Prussof, W. H. (Biochemical Pharmacol (1973) 22 3099-3108). pI50 and fpKi are the negative log10 of the molar IC50 and functional Ki respectively.

T1 sequence (P50406 whole entry): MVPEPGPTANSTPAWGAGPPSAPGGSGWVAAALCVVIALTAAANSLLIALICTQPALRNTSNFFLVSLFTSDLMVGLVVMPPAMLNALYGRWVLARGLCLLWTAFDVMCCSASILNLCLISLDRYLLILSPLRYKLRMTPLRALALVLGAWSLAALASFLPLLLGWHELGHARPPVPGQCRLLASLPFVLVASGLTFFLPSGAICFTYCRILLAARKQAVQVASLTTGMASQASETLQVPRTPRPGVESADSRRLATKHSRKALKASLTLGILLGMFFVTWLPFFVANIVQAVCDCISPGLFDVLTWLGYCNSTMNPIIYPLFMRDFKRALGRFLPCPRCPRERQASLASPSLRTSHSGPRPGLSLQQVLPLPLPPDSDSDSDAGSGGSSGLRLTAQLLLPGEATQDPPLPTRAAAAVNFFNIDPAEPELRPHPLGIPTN

Q: Which Ki does the source give for `CN(C)C1CCN(c2ccc(I)c3cc(S(=O)(=O)c4ccccc4)cnc23)CC1` [Example 13, 1-[5-Iodo-3-(phenylsulfonyl)-8-quinolinyl]-N,N-dimethyl-4-piperidinamine hydrochloride] here?
A: 158 nM

— US20070249603A1, “3-Arylsulfonyl-Quinolines as 5-Ht6 Receptor Antagonists for the Treatment of Cns Disorders” (priority 2004, published 2007)
